Assay results published in ChEMBL document CHEMBL1150711, “Maquiroside A, a new cytotoxic cardiac glycoside from Maquira calophylla” (1987).
Values after ≈ are worked out from the molar mass of the structure shown.

Tested on: KB
Assay: Cytotoxicity against human KB cells
Assay type: functional
Conditions: read-out: ED50 (the source's name)

SMILES: CO[C@H]1C[C@H](O[C@H]2CC[C@@]3(CO)[C@H](CC[C@@H]4[C@@H]3CC[C@]3(C)[C@@H](C5=CC(=O)OC5)CC[C@]43O)C2)O[C@H](C)[C@H]1O [MAQUIROSIDE A]
- EC50: 0.013 µg/mL (≈ 0.0243 µM)
